Reference: US20090203737A1, “Pyrrole Derivatives as Positive Allosteric Modulators of Metabotropic Receptors” (priority 2005, published 2009)
Several values for one entry are separate records, joined by “and”; a condition that tells them apart may be missing. Equal entries are not always repeated.

target: T1, rat mGluR5 receptor (Rattus norvegicus, UniProt P31424); test: mGluR5 assay on HEK-expressing rat mGluR5 (fluorescent cell based Ca2+ mobilization assay); conditions: HEK-293 cells stably expressing rat mGluR5; no co-addition of glutamate; mean of at least three independent experiments in duplicate; read-out: Ca++ Flux (mean EC50)
T1 construct: expressed in transfected cells
T1 sequence (P31424 21-1171 isoform P31424-2 limits assumed): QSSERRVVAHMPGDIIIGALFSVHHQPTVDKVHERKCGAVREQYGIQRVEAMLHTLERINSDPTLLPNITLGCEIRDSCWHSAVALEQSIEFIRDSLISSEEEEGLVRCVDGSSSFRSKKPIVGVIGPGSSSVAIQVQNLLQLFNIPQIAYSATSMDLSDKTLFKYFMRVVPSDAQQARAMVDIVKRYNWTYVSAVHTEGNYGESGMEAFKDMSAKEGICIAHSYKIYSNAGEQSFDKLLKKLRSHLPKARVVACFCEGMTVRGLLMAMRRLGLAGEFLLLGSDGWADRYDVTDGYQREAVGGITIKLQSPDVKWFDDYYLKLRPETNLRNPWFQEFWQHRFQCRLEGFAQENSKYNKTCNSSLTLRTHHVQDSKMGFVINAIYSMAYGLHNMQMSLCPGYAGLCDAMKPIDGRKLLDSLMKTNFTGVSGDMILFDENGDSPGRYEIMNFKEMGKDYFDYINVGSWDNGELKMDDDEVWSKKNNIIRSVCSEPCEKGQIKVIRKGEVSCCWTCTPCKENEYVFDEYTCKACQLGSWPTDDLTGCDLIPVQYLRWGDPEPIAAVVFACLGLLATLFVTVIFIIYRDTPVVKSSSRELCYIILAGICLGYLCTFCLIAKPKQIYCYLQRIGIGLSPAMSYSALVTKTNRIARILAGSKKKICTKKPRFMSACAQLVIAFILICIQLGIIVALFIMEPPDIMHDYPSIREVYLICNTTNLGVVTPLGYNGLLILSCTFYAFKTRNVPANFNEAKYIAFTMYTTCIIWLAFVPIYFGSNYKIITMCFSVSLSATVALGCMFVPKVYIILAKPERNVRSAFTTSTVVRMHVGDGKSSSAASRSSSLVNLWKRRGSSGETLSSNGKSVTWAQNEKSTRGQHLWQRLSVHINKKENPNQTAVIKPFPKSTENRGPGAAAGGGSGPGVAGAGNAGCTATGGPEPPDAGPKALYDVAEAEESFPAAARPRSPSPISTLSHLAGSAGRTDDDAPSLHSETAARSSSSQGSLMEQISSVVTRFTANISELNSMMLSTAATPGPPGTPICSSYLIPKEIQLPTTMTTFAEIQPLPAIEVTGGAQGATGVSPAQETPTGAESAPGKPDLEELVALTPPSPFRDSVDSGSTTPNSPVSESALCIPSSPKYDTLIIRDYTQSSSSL
Procedure: Positive functional expression of HEK-293 cells stably expressing rat mGluR5 receptor was determined by measuring intracellular Ca^2+ changes using a Fluorometric Imaging Plate Reader (FLIPR, Molecular Devices, Sunnyvale, Calif.) in response to glutamate or selective known mGluR5 agonists and antagonists. Rat mGluR5 RT-PCR products in HEK-293 cells were sequenced and found 100% identical to rat mGluR5 Genbank reference sequence (NM_017012). HEK-293 cells expressing rmGluR5 were maintained in media containing DMEM, dialyzed Fetal Bovine Serum (10%), Glutamax™ (2 mM), Penicillin (100 units/ml), Streptomycin (100 μg/ml), Geneticin (100 μg/ml) and Hygromycin-B (40 μg/ml) at 37° C./5% CO2.
After one day of incubation, cells were washed with assay buffer containing: 142 mM NaCl, 6 mM KCl, 1 mM […], 1 mM CaCl2, 20 mM HEPES, 1 g/L glucose, 0.125 mM sulfinpyrazone, pH 7.4. After 60 min of loading with 4 uM Fluo-4 (TefLabs, Austin, Tex.), the cells were washed three times with 50 μl of PBS Buffer and resuspended in 45 μl of assay Buffer. The plates were then transferred to a Fluorometric Imaging Plate Reader (FLIPR, Molecular Devices, Sunnyvale, Calif.) for the assessment of intracellular calcium flux. After monitoring the baseline fluorescence for 10 seconds, increasing concentrations of representative compound (from 0.01 to 60 μM) of the present invention diluted in Assay Buffer (15 μl of 4× dilutions) was added to the cell. The final DMSO concentration in the assay was 0.3%. In each experiment, fluorescence was then monitored as a function of time for 3 minutes and the data analyzed using Microsoft Excel and GraphPad Prism. Each data point was also measured two times.
Under these experimental conditions, this HEK-rat mGluR5 cell line is able to directly detect positive allosteric modulators without the need of co-addition of glutamate or mGluR5 agonist.
The concentration-response curves of representative compounds of the present invention were generated using the Prism GraphPad software (Graph Pad Inc, San Diego, USA). The curves were fitted to a four-parameter logistic equation:
(Y=Bottom+(Top−Bottom)/(1+10̂((LogEC50−X)*Hill Slope)
allowing determination of EC50 values.
The Table 1 below represents the mean EC50 obtained from at least three independent experiments of selected molecules performed in duplicate.

Row | SMILES | EC50
1 | O=C(c1ccc(F)cc1F)N1CCC[C@H](c2nc(-c3ccc[nH]3)no2)C1 [Example 2, (2,4-Difluoro-phenyl)-((S)-3-[3-(1H-pyrrol-2-yl)-[1,2,4]oxadiazol-5-yl]-piperidin-1-yl)-methanone] | < 1000 nM
2 | O=C(c1ccc(F)cc1)N1CCCC(c2noc(-c3ccn[nH]3)n2)C1 (centres unmarked) [Example 13, (4-Fluoro-phenyl)-{3-[5-(2H-pyrazol-3-yl)-[1,2,4]oxadiazol-3-yl]-piperidin-1-yl}-methanone] | > 10000 nM
3 | O=C(c1ccc(F)c(F)c1)N1CCCC(c2noc(-c3ccn[nH]3)n2)C1 (centres unmarked) [Example 14, (3,4-Difluoro-phenyl)-{3-[5-(2H-pyrazol-3-yl)-[1,2,4]oxadiazol-3-yl]-piperidin-1-yl}-methanone] | > 10000 nM
4 | O=C(c1ccc(F)cc1)N1CCCC(c2noc(-c3ncc[nH]3)n2)C1 (centres unmarked) [Example 17, (4-Fluoro-phenyl)-{3-[5-(1H-imidazol-2-yl)-[1,2,4]oxadiazol-3-yl]-piperidin-1-yl}-methanone] | 1000 to 10000 nM
5 | O=C(c1ccc(F)cc1)N1CCC[C@H](c2nc(-c3ncc[nH]3)no2)C1 [Example 24, (4-Fluoro-phenyl)-{(S)-3-[3-(1H-imidazol-2-yl)-[1,2,4]oxadiazol-5-yl]-piperidin-1-yl}-methanone] | 1000 to 10000 nM
6 | Cc1c[nH]c(-c2nc([C@H]3CCCN(C(=O)c4ccc(F)nc4)C3)no2)c1 [Example 28, (6-Fluoro-pyridin-3-yl)-{(S)-3-[5-(4-methyl-1H-pyrrol-2-yl)-[1,2,4]oxadiazol-3-yl]-piperidin-1-yl}-methanone] | < 1000 nM
7 | Cc1c[nH]c(-c2nc([C@H]3CCCN(C(=O)c4ccnc(F)c4)C3)no2)c1 [Example 30, (2-Fluoro-pyridin-4-yl)-{(S)-3-[5-(4-methyl-1H-pyrrol-2-yl)-[1,2,4]oxadiazol-3-yl]-piperidin-1-yl}-methanone] | < 1000 nM
8 | Cc1ccc(-c2nc([C@H]3CCCN(C(=O)c4ccc(F)cc4)C3)no2)[nH]1 [Example 38, (4-Fluoro-phenyl)-{(S)-3-[5-(5-methyl-1H-pyrrol-2-yl)-[1,2,4]oxadiazol-3-yl]-piperidin-1-yl}-methanone] | 1000 to 10000 nM
9 | O=C(c1ccc(F)nc1)N1CCC[C@H](c2noc(-c3cc(Cl)c[nH]3)n2)C1 [Example 40, {(S)-3-[5-(4-Chloro-1H-pyrrol-2-yl)-[1,2,4]oxadiazol-3-yl]-piperidin-1-yl}-(6-fluoro-pyridin-3-yl)-methanone] | < 1000 nM
10 | O=C(c1ccnc(F)c1)N1CCC[C@H](c2noc(-c3cc(Cl)c[nH]3)n2)C1 [Example 41, {(S)-3-[5-(4-Chloro-1H-pyrrol-2-yl)-[1,2,4]oxadiazol-3-yl]-piperidin-1-yl}-(2-fluoro-pyridin-4-yl)-methanone] | < 1000 nM
11 | Cc1oncc1C(=O)N1CCC[C@H](c2noc(-c3cc(Cl)c[nH]3)n2)C1 [Example 42, {(S)-3-[5-(4-Chloro-1H-pyrrol-2-yl)-[1,2,4]oxadiazol-3-yl]-piperidin-1-yl}-(5-methyl-isoxazol-4-yl)-methanone] | < 1000 nM
12 | O=C(c1ccc(F)cc1)N1CCC[C@H](c2nc(-c3cc(Cl)c[nH]3)no2)C1 [Example 43, {(S)-3-[3-(4-Chloro-1H-pyrrol-2-yl)-[1,2,4]oxadiazol-5-yl]-piperidin-1-yl}-(4-fluoro-phenyl)-methanone] | < 1000 nM
13 | O=C(c1ccc(F)nc1)N1CCC[C@H](c2noc(-c3cc(Br)c[nH]3)n2)C1 [Example 44, {(S)-3-[5-(4-Bromo-1H-pyrrol-2-yl)-[1,2,4]oxadiazol-3-yl]-piperidin-1-yl}-(6-fluoro-pyridin-3-yl)-methanone] | < 1000 nM and > 10000 nM
14 | O=C(c1ccc(F)cc1)N1CCC[C@H](c2nc(-c3cc(Br)c[nH]3)no2)C1 [Example 45, {(S)-3-[3-(4-Bromo-1H-pyrrol-2-yl)-[1,2,4]oxadiazol-5-yl]-piperidin-1-yl}-(4-fluoro-phenyl)-methanone] | < 1000 nM
15 | O=C(c1ccc(F)nc1)N1CCC[C@H](c2nc(-c3cc(Br)c[nH]3)no2)C1 [Example 46, {(S)-3-[3-(4-Bromo-1H-pyrrol-2-yl)-[1,2,4]oxadiazol-5-yl]-piperidin-1-yl}-(6-fluoro-pyridin-3-yl)-methanone] | < 1000 nM
16 | CC1(C)CC(c2nc(-c3ccc[nH]3)no2)CN(C(=O)c2ccc(F)cc2)C1 (centres unmarked) [Example 49, {3,3-Dimethyl-5-[3-(1H-pyrrol-2-yl)-[1,2,4]oxadiazol-5-yl]-piperidin-1-yl}-(4-fluoro-phenyl)-methanone] | 1000 to 10000 nM
17 | O=C(c1ccnc(F)c1)N1CCC[C@H](c2nc(-c3cc(F)c[nH]3)no2)C1 [Example 53, (2-Fluoro-pyridin-4-yl)-{(S)-3-[3-(4-fluoro-1H-pyrrol-2-yl)-[1,2,4]oxadiazol-5-yl]-piperidin-1-yl}-methanone] | < 1000 nM

More lines, now with the values ahead:

Row | EC50 | SMILES
18 | < 1000 nM | O=C(c1ccc(F)c(F)c1)N1CCC[C@H](c2nc(-c3ccc[nH]3)no2)C1 [Example 3, (3,4-Difluoro-phenyl)-{(S)-3-[3-(1H-pyrrol-2-yl)-[1,2,4]oxadiazol-5-yl]-piperidin-1-yl}-methanone]
19 | 1000 to 10000 nM | O=C(c1ccc(F)cc1F)N1CCC[C@H](c2nc(-c3cc4ccccc4[nH]3)no2)C1 [Example 12, (2,4-Difluoro-phenyl)-{(S)-3-[3-(1H-indol-2-yl)-[1,2,4]oxadiazol-5-yl]-piperidin-1-yl}-methanone]
20 | 1000 to 10000 nM | O=C(c1ccc(F)cc1)N1CCC[C@H](c2nc(-c3cc4ccccc4[nH]3)no2)C1 [Example 16, (4-Fluoro-phenyl)-{(S)-3-[3-(1H-indol-2-yl)-[1,2,4]oxadiazol-5-yl]-piperidin-1-yl}-methanone]
21 | < 1000 nM | Cc1c[nH]c(-c2nc([C@H]3CCCN(C(=O)c4cnoc4C)C3)no2)c1 [Example 29, (5-Methyl-isoxazol-4-yl)-{(S)-3-[5-(4-methyl-1H-pyrrol-2-yl)-[1,2,4]oxadiazol-3-yl]-piperidin-1-yl}-methanone]
22 | < 1000 nM | Cc1c[nH]c(-c2noc([C@H]3CCCN(C(=O)c4ccc(F)nc4)C3)n2)c1 [Example 33, (6-Fluoro-pyridin-3-yl)-{(S)-3-[3-(4-methyl-1H-pyrrol-2-yl)-[1,2,4]oxadiazol-5-yl]-piperidin-1-yl}-methanone]
23 | < 1000 nM | Cc1c[nH]c(-c2noc([C@H]3CCCN(C(=O)c4ccnc(F)c4)C3)n2)c1 [Example 34, (2-Fluoro-pyridin-4-yl)-{(S)-3-[3-(4-methyl-1H-pyrrol-2-yl)-[1,2,4]oxadiazol-5-yl]-piperidin-1-yl}-methanone]
24 | < 1000 nM | Cc1c[nH]c(-c2noc([C@H]3CCCN(C(=O)c4cnoc4C)C3)n2)c1 [Example 35, (5-Methyl-isoxazol-4-yl)-{(S)-3-[3-(4-methyl-1H-pyrrol-2-yl)-[1,2,4]oxadiazol-5-yl]-piperidin-1-yl}-methanone]
25 | < 1000 nM | O=C(c1ccc(F)cc1)N1CCC[C@H](c2noc(-c3cc(Cl)c[nH]3)n2)C1 [Example 39, {(S)-3-[5-(4-Chloro-1H-pyrrol-2-yl)-[1,2,4]oxadiazol-3-yl]-piperidin-1-yl}-(4-fluoro-phenyl)-methanone]
26 | < 1000 nM | O=C(c1ccc(F)nc1)N1CCC[C@H](c2nc(-c3cc(F)c[nH]3)no2)C1 [Example 52, (6-Fluoro-pyridin-3-yl)-{(S)-3-[3-(4-fluoro-1H-pyrrol-2-yl)-[1,2,4]oxadiazol-5-yl]-piperidin-1-yl}-methanone]
